Assay [1] has as its system Plasma estradiol. Briefly: Estradiol production in PMSG-injected rats. To be noted: Rattus norvegicus; 1 mg/kg by gavage three days after 200 I.U. PMSG s.c.; plasma 2 h after administration; % non-recovered relative to untreated controls; read-out: Estradiol in vivo (% inhibition) 1 mg/kg / 2h. Further details: species or system Female Wistar rats. On the procedure: Female Wistar rats weighing 150 g were injected with 200 I.U. Pregnant Mare's Serum Gonadotropin (PMSG) (Folligon®) subcutaneously. Three days later 1 mg/kg of the test compound, dissolved in 20% polyethyleneglycol in water, was administered by gavage. Control animals received 20% polyethyleneglycol only. Two hours after drug or placebo administration the animals were killed by decapitation and trunk blood was collected in heparinized tubes. Plasma estradiol was measured using a direct fluorescence immunoassay.

Assay [2] deals with Corticosterone. The experiment in a line: Corticosterone production in LHRH/ACTH-injected rats. Further details: species or system Adult male Wistar rats. The conditions noted are these: Rattus norvegicus, po; 10 mg/kg orally by gavage; LHRH/ACTH injected 1 h later; plasma 2 h after stimulation; % non-recovered relative to untreated controls; read-out: Corticosterone in vivo (% inhibition) 10 mg/kg / 2h. How it is done: (§1) Adult male Wistar rats weighing 250 g were starved 24 h before the start of the experiment. Between 8 and 9 a.m. 10 mg/kg of the test compounds were administered orally by gavage. One hour later, the animals were injected intramuscularly with 40 ng of Luteinizing Hormone Releasing Hormone (LHRH) (Receptal®) and 25 µg of Adrenocorticotropic Hormone (ACTH1-24) (Cortrosyn®). To avoid stress, the animals were also anesthetized with 7.5 mg of pentobarbital. Two hours after stimulation, the animals were killed by decapitation and trunk blood was collected in heparinized tubes. […] Corticosterone was measured using radio immunoassay with ^3H-labelled corticosterone and dextrane-coated charcoal to separate bound and free steroid.

Assay [3] deals with Plasma testosterone. The experiment in a line: Testosterone production in LHRH/ACTH-injected rats. To be noted: Rattus norvegicus, po; 10 mg/kg orally by gavage; LHRH/ACTH injected 1 h later; plasma 2 h after stimulation; % non-recovered relative to untreated controls; read-out: Testosterone in vivo (% inhibition) 10 mg/kg / 2h. Further details: species or system Adult male Wistar rats. On the procedure: as §1

In the case of `CCCCn1cnc2ccc(C3CCc4cncn43)cc21` (racemic) [compound 22], the inhibition at 1 mg/kg in assay [1] is 91%. Besides, the inhibition at 10 mg/kg in assay [2] came out at 35%; in assay [3], 92.5%.
On the same counts, the results for `Cn1cnc2ccc(C3CCc4cncn43)cc21` (racemic) [compound 23] are 78%, 31% and 81%.
On the same counts, the results for `CCCCCn1cnc2ccc(C3CCc4cncn43)cc21` (racemic) [compound 31] are 69%, 28% and 91%.
`CCCCCCn1cnc2ccc(C3CCc4cncn43)cc21` (racemic) [compound 32]: the inhibition at 1 mg/kg in assay [1] was found to be 65%. In addition, the inhibition at 10 mg/kg in assay [2] was determined as 37%; in assay [3], 67%.
In the case of `CCCn1cnc2ccc(C3CCc4cncn43)cc21` (racemic) [compound 33], the inhibition at 1 mg/kg in assay [1] worked out at 82%. Moreover, the inhibition at 10 mg/kg in assay [2] amounted to 55%; in assay [3], 98%.
On the same counts, the results for `CCCCn1c(CC)nc2ccc(C3CCc4cncn43)cc21` (racemic) [compound 34] are 80%, 21% and 12%.
On the same counts, the results for `c1cc2ncn(C3CCCCC3)c2cc1C1CCc2cncn21` (racemic) [compound 35] are 77%, 22% and 92%.
Turning to `c1ccc(-n2cnc3ccc(C4CCc5cncn54)cc32)cc1` (racemic) [compound 37], in assay [1], the inhibition at 1 mg/kg was 31%. The figures for the inhibition at 10 mg/kg in assay [2] and in assay [3] were 22% and 96%, respectively.
For `c1ccc(Cn2cnc3ccc(C4CCc5cncn54)cc32)cc1` (racemic) [compound 38], in assay [1], the inhibition at 1 mg/kg was 42%. For the same molecule, the inhibition at 10 mg/kg in assay [2] was found to be 7%; in assay [3], 80%.
On the same counts, the results for `CCn1cnc2ccc(C3CCc4cncn43)cc21` (racemic) [compound 39] are 90%, 39% and 93%.
On the same counts, the results for `c1cc2ncn(C3CC3)c2cc1C1CCc2cncn21` (racemic) [compound 41, (±)-1-cyclopropyl-6-(6,7-dihydro-5H-pyrrolo[1,2-c]imidazol-5-yl)-1H-benzimidazole dinitrate] are 89%, 39% and 91%.
On the same counts, the results for `CC(C)n1cnc2ccc(C3CCc4cncn43)cc21` (racemic) [compound 42] are 93%, 33% and 98%.
Turning to `c1ccc(-c2nc3cc(C4CCc5cncn54)ccc3[nH]2)cc1` (racemic) [compound 43], in assay [1], the inhibition at 1 mg/kg was 54%. Also, the values for the inhibition at 10 mg/kg in assay [2] and in assay [3] were 20% and 64%, respectively.
On the same counts, the results for `CCCCn1c(NC(=O)OC)nc2ccc(C3CCc4cncn43)cc21` (racemic) [compound 44] are 66%, 10% and 66%.
On the same counts, the results for `c1nc2cc(C3CCc4cncn43)ccc2[nH]1` (racemic) [compound 46] are 77%, 23% and 78%.
On the same counts, the results for `Cc1nc2cc(C3CCc4cncn43)ccc2[nH]1` (racemic) [compound 47, (±)-5-(6,7-dihydro-5H-pyrrolo-[1,2-c]imidazol-5-yl)-2-methyl-1H-benzimidazole] are 72%, 4% and 85%.
In the case of `CCCCn1c(O)nc2ccc(C3CCc4cncn43)cc21` (racemic) [compound 48, (±)-1-butyl-6-(6,7-dihydro-5H-pyrrolo[1,2-c]imidazol-5-yl)-1H-benzimidazol-2-ol], in assay [1], the inhibition at 1 mg/kg came to 77%. Moreover, the inhibition at 10 mg/kg in assay [2] worked out at 4%; in assay [3], 93%.
On the same counts, the results for `C=CCn1cnc2ccc(C3CCc4cncn43)cc21` (racemic) [compound 49] are 81%, 13% and 90%.

These data come from patent publication EP0625155B1, “PYRROLOIMIDAZOLYL AND IMIDAZOPYRIDINYL SUBSTITUTED 1H-BENZIMIDAZOLE DERIVATIVES AS AROMATASE INHIBITORS” (JANSSEN PHARMACEUTICA N.V., priority 1992, dated 1993).
